Tests used:
Type in all cases: cell-based, human
[1] = tested on: Smad2; test: Western blot for TGFβ induced Smad2 phosphorylation in CMPCs; conditions: 1 ng/ml TGFβ, Western blot α-pSmad2
Experimental: (§1) To determine whether CMPCs of the invention were capable of responding to TGFβ ligand we examined their ability to phosphorylate smad proteins. TGFβ exerts its effect by binding to a complex of type I and type II receptor and phosphorylating Smads^30. TGFβ phosphorylates Smad2 while BMP phosphorylates Smad1. […] To examine the effect of TGFβ on cardiomyocyte differentiation, hCMPCs were plated at 2×10^4 cells per cm^2 in differentiation medium, treated with 5-aza for 24 hours and cultured for up to 3 weeks in differentiation medium supplemented with TGFβ (1 ng/ml).
(§2) FIG. 3: (A) Western blot analysis on protein samples isolated from CMPCs stimulated without or with 1 ng/ml TGFβ or 25 ng/ml BMP-6 and probed with α-pSmad1 or α-pSmad2. Asterisk indicates an non-specific band showing equal loading. B) Semi-quantitative RT-PCR on RNA isolated from CMPCs stimulated without or with 1 ng/ml TGFβ for the indicated days probed for the expression of the early cardiac transcription factors Nkx2.5 and Mef2C, the contractile proteins cardiac actin, cardiac Troponin I, desmin, ANP and MLC2v. β-actin was used as a control for equal RNA input. C) Western blot analysis on protein samples from CMPCs stimulated without or with 1 ng/ml TGF for the indicated days, probed for Nkx2.5 or α-actinin. […] Counterstaining of nuclei was performed using DAPI. Bar=50 μm. […]

[2] = tested on: hCMPCs; test: Differentiation of hCMPCs into cardiomyocytes (5-azacytidine, ascorbic acid, TGFβ); RT-PCR, Western blot, α-actinin immunofluorescence
Experimental: For a cell type to be suitable for cardiomyocyte replacement therapies, it should not only be able to proliferate but also differentiate efficiently into cardiomyocytes. To study the capacity of the hCMPCs of the invention to differentiate into cardiomyocytes, cells were plated at 10^5 per cm^2 in differentiation medium containing ascorbic acid and treated with 5-azacytidine (which is a demethylating agent).
as §1
To induce differentiation, cells were treated with 5 μM 5′-azacytidine (Sigma) for 72 hours in differentiation medium (Iscove's Modified Dulbecco's Medium/HamsF12 (1:1) (Gibco)) supplemented with L-Glutamine (Gibco), 2% horse serum, non-essential amino acids, Insulin-Transferrin-Selenium supplement, and 10^−4 M Ascorbic Acid (Sigma)). After induction, the medium was changed every 3 days.
For TGFβ treatment, CMPCs were cultured in differentiation medium, stimulated with 5 μM 5′-azacytidine (Sigma) and 1 ng/ml TGFβ1 (Sigma) added 24 hours later. The medium was changed every 3 days.
RNA was isolated using of Trizol (Invitrogen, Breda, The Netherlands) and reverse transcribed using oligo-dT Superscript 3 (Invitrogen). The PCR reactions started with 2 min at 94° C. followed by 35 cycles of: 15 s at 94° C., 30 s at 55° C. and 45 s at 72° C. Products were analyzed on ethidium bromide-stained 1% agarose gel. β-tubulin or β-actin were used as RNA input control.
Coverslips with cultured cells were rinsed in serum free medium, fixed in methanol (−20° C.) or 4% paraformaldehyde, washed with PBS and permeabilized with 0.2% Triton X-100/PBS. Non-specific binding of antibodies was blocked with 2% bovine serum albumin (BSA). Incubation with primary antibodies was performed overnight in PBS/10% normal goat serum (NGS). Antibodies used recognized GATA-4 (Santa Cruz), Islets-1 (Hybridoma Bank), Cx40 (Chemicon), Cx43 (Zymed), Cx45 (kindly provided by Dr. T. H. Steinberg, Washington University, St. Louis, USA), α-actinin (Sigma), Troponin I (Chemicon) desmin (Sanbio), titin (Sigma), MLC2v (Alexis), β-MHC (kindly provided by Dr. A. F. M. Moorman, AMC Amsterdam, Netherlands), N-cadherin (Sigma) and ZO-1 (Zymed). Immunolabeling was performed using Texas Red (TR)- or fluorescein isothiocyanate (FITC)-conjugated secondary antibodies (Jackson Laboratories). All incubation steps were performed at room temperature and in between all incubation steps, cells were washed with PBS. Finally, coverslips were mounted in Vectashield (Vector Laboratories) and examined with a Nikon Optiphot-2 light microscope equipped for epifluorescence.
Western blot analysis was performed as described previously^35. Detection was by ECL (Amersham). […]

[3] = tested on: CMPC; test: In vitro angiogenesis assay: tube formation by CMPC on Matrigel/ECMatrix; conditions: CMPCs on Matrigel, addition of VEGF
Description: We have also established differentiation of CMPCs of the invention into tubular vascular structures (angiogenesis) on Matrigel, said “tubular vascular structures” which are sometimes also denoted herein as “tubular structures” containing aligned endothelial cells encircled by smooth muscle cells. […] The formation of these newly formed capillary tubes can be visualised for example by staining α-SMA (a smooth muscle actin) on smooth muscle cells and/or PECAM-1 (platelet endothelial cell adhesion molecule-1, CD31) on endothelial cells (see also appended Example 8). Antibodies which can be used in this regard are exemplified in the following: SMA antibody: AB5694 from abcam, clone 1A4, Sigma, cat. Number: A2547, or Dako, cat. Number M08510. Endothelial cells: PECAM-1 clone 9G11 or CD34 clone Qbend/10 form Biogenex or CD31 from Sigma and ve-cadherin from Santa Cruz.
In this case the assay is set up in order to test the influence of diverse compounds (i.e. chemical compounds or miRNA etc.) on tube formation by CMPC (cardio mycocyte progenitor cells). In order for these cells to form tubes these cells have to differentiate into smooth muscle cells and endothelial cells.
The formation of these newly formed capillary tubes is visualised by staining α-SMA (α smooth muscle actin) on smooth muscle cells and PECAM-1 (platelet endothelial cell adhesion molecule-1, CD31) on endothelial cells. […]

[4] = tested on: Smad1; test: Western blot for BMP induced Smad1 phosphorylation in CMPCs; conditions: 25 ng/ml BMP-6, Western blot α-pSmad1
Experimental: as §1, §2

TGFβ: TGFβ1 (Sigma), 1 ng/ml, added to differentiation medium
Smad2 phosphorylation [1]: TGFβ induced Smad2 phosphorylation
expression of Nkx2.5 and α-actinin (Western blot) ([2]; CMPCs, 7 days of culture in the presence of TGFβ 1 ng/ml): increased dramatically
percentage of α-actinin positive cells ([2]; hCMPCs, 5-aza 24 hours, then TGFβ 1 ng/ml, immunofluorescent staining): ~100%
expression of cardiac genes Troponin-I, ANP, cardiac-actin and desmin (RT-PCR) ([2]; hCMPCs, 5-aza, TGFβ 1 ng/ml, undetectable in its absence): already observed 7 days after the initiation of differentiation
MLC2v expression (RT-PCR) ([2]; hCMPCs, 5-aza, TGFβ 1 ng/ml, without TGFβ only after 3 weeks): already present after two weeks

VEGF
formation of capillary tubes [3]: can be induced

Nc1ncn([C@@H]2O[C@H](CO)[C@@H](O)[C@H]2O)c(=O)n1 [5-azacytidine, reference compound]
differentiation of hCMPCs into cardiomyocytes (beating areas) ([2]; hCMPCs 10^5 per cm^2, differentiation medium with ascorbic acid, three weeks after treatment): spontaneously beating areas were observed

B1: BMP: bone morphogenetic protein; 25 ng/ml BMP-6 in FIG. 3A (protein, UniProt P22004 375-513, looked up)
Bone morphogenetic protein 6: SASSRRRQQSRNRSTQSQDVARVSSASDYNSSELKTACRKHELYVSFQDLGWQDWIIAPKGYAANYCDGECSFPLNAHMNATNHAIVQTLVHLMNPEYVPKPCCAPTKLNAISVLYFDDNSNVILKKYRNMVVRACGCH
Smad1 phosphorylation [4]: clear BMP induced Smad1 phosphorylation

Reference: patent US20100203021A1, “PROVISION OF NEW CARDIOMYOCYTE PROGENITOR CELLS AND CARDIOMYOCYTES DERIVED THEREFROM” (LEAD PHARMA CEL MODELS IP B.V., priority 2007, published 2010)
